Structures can show the parent of a compound that is named as a salt. Where two headings read alike, the source gives them in different places.

One test addresses T1, MMP-14 (Homo sapiens, UniProt P50281).
T1 construct: The catalytic domain enzyme was expressed in E. coli inclusion bodies, solubilized in urea; made in house
In words: In vitro MMP inhibition, Ki determination (fluorogenic substrate II). Type of test: biochemical. The following applies: read-out: MMP-14 Ki. How it is done:
(§1) Several hydroxamic acids and salts thereof were analyzed in in vitro assays to determine their ability to inhibit the MMP cleavage of peptide substrates. […] and IC50 constants were calculated from the assayed hydroxamic acid-MMP interactions.
(§2) Human recombinant MMP-1, MMP-2, MMP-9, MMP-13, and MMP-14 were used in this assay. All enzymes were prepared in Assignee's laboratories following usual laboratory procedures. Protocols for the preparation and use of these enzymes are available in the scientific literature. See, e.g., Enzyme Nomenclature (Academic Press, San Diego, Calif., 1992) (and the citations therein). See also, Freije et al., “Molecular cloning and expression of collagenase-3, a novel human matrix metalloproteinase produced by breast carcinomas,” J Biol. Chem., 269(24), 16766-16773 (1994).
The MMP-14 full length cDNA was provided by Dr. Gregory Goldberg of Washington University (St. Louis, Mo.). The catalytic domain enzyme was expressed in E. coli inclusion bodies, solubilized in urea, purified on a preparative […] reverse phase HPLC column, and then refolded in the presence of zinc acetate and purified for use.
(§3) All MMPs were activated using 4-aminophenylmercuric acetate (“APMA”, Sigma Chemical, St. Louis, Mo.) or trypsin. MMP-9 also was activated using human recombinant MMP-3 (purified in Assignee's laboratory following standard cloning and purification techniques).
(§4) Two fluorogenic, methoxycoumarin-containing polypeptide substrates were used in the MMP inhibition assays: [drawing 427] Here, “Dpa” is 3-(2,4-dinitrophenyl)-L-2,3-diaminopropionyl group, and “MCA” is 7-methoxycoumarin-4-yl acetyl. Substrate (I) was purchased from Baychem (Redwood City, Calif.), and substrate II was prepared Assignee's laboratory. Substrate I was used in the IC50 determination assays, while substrate II was used in the Ki determination assays. In the absence of MMP inhibitory activity, either substrate is cleaved at the Gly-Leu peptide bond. This cleavage separates the highly fluorogenic peptide from the 2,4-dinitrophenyl quencher, thus resulting in increase of fluorescent intensity.
(§5) The stock solutions of the assayed hydroxamic acids (or salts thereof) were prepared in 1% dimethyl sulfoxide (DMSO). These stock solutions were diluted in Buffer A (100 mM Tris-HCl, 100 mM NaCl, 10 mM CaCl2, 0.05% polyoxyethylene 23 lauryl ether, pH 7.5) to obtain solutions with different hydroxamic acid concentrations, i.e., assay solutions with different concentrations of the assayed MMP inhibitory compound. The experiment controls contained the same amount of Buffer A/DMSO as the assayed sample, but contained no hydroxamic acid (or salt thereof).
(§6) The assays from which the Ki determinations were made were performed as follows. The assayed hydroxamic acid samples were incubated in separate wells of untreated white polystyrene plates (Nunc Nalgene International, Rochester, N.Y.), and analyzed on a Tecan SpectraFlour Plus plate reader. The excitation wavelength was 330 nm, and the emission wavelength—420 nm. All samples (assayed hydroxamic acids and controls) were incubated in separate plate wells at room temperature for 1 hr in the presence of 4 μM of MMP substrate (II). In the absence of MMP inhibitory activity, substrate II was cleaved at the Gly-Leu bond resulting in an increase of relative fluorescence. Inhibition was observed as a reduced rate of this increase in relative fluorescence. The various hydroxamic acids were analyzed using a single low enzyme concentration with a single substrate concentration fixed at or below the Km. This protocol is a modification of method by Knight et al., FEBS Lett., 296(3), 263-266 (1992). Apparent inhibitory constants were determined by non-linear regression of reaction velocity as a function of inhibitor and enzyme concentration using Morrison's equation, as described by Kuzmic, Anal. Biochem. 286, 45-50 (2000).

The target of the next test is T2, MMP-13 (Homo sapiens, UniProt P45452).
T2 construct: made in house; host or cells: baculovirus / insect cells
Described as above. The test is classed as biochemical. Conditions: read-out: MMP-13 Ki. How it is done:
as §1, §2
The MMP-13 was obtained as a proenzyme from a full-length cDNA clone using baculovirus, as described by V. A. Luckow, “Insect Cell Expression Technology,” Protein Engineering: Principles and Practice, pp. 183-218 (edited by J. L. Cleland et al., Wiley-Liss, Inc., 1996). The expressed proenzyme was first purified over a heparin agarose column, and then over a chelating zinc chloride column. The proenzyme was then activated by APMA for use in the assay. […] See also, O'Reilly et al, Baculovirus Expression Vectors: A Laboratory Manual (W.H. Freeman and Co., New York, N.Y., 1992). See also, King et al., The Baculovirus Expression System: A Laboratory Guide (Chapman & Hall, London, England, 1992).
as §3, §4, §5
as §6, with “Km.” for “Km. This protocol is a modification of method by Knight et al., FEBS Lett., 296(3), 263-266 (1992). Apparent inhibitory constants were determined by non-linear regression of reaction velocity as a function of inhibitor and enzyme concentration using Morrison's equation, as described by Kuzmic, Anal. Biochem. 286, 45-50 (2000).”

[1] abbreviates: human recombinant enzyme (catalytic domain), 4 μM substrate II, room temperature, 1 hr.
[2] abbreviates: human recombinant enzyme, 4 μM substrate II, room temperature, 1 hr.

On to `CCCCOc1ccc(C2CCN(S(=O)(=O)C3(C(=O)NO)CCN(CCOC)CC3)CC2)cc1` [Example 16, 4-{[4-(4-butoxyphenyl)piperidin-1-yl]sulfonyl}-N-hydroxy-1-(2-methoxyethyl)piperidine-4-carboxamide Hydrochloride], for which the Ki (commonly the dissociation constant of the complex between target and ligand, obtained from inhibition or displacement) on MMP-14 (setting [1]) was found to be 2.93 µM; on MMP-13 (setting [2]), 0.00034 µM.

For the compound `COc1ccc(N2CCN(S(=O)(=O)C3(C(=O)NO)CCOCC3)CC2)nc1` [Example 109], the figures for the Ki at MMP-14 (value not in parenthesis) and at MMP-13 (value not in parenthesis) were over 10 µM and 0.472 µM, respectively.

For the compound `COc1ccc(N2CCN(S(=O)(=O)C3(C(=O)NO)CCOCC3)CC2)nc1` [Example 108], the Ki at MMP-14 (value not in parenthesis) was over 10 µM; at MMP-13 (value not in parenthesis), 0.478 µM.

With `CCCCOc1ccc(N2CCN(S(=O)(=O)C3(C(=O)NO)CCN(c4ccccn4)CC3)CC2)cc1` [Example 149], the results for the Ki at MMP-14 (value not in parenthesis) and at MMP-13 (value not in parenthesis) were 2.66 µM and 0.00131 µM, respectively.

For `CCCCCCCCC1CCN(S(=O)(=O)C2(C(=O)NO)CCOCC2)CC1` [Example 26, 4-(4-octyl-piperidine-1-sulfonyl)-tetrahydro-pyran-4-carboxylic Acid Hydroxyamide], the inhibitory constant (Ki) on MMP-14 (setting [1]) was determined as 0.657 µM; at MMP-13 (setting [2]) it was 0.00051 µM.

For the compound `CCCCOc1ccc(N2CCN(S(=O)(=O)C3(C(=O)NO)CCN(c4cc(C)ccn4)CC3)CC2)cc1` [Example 139], the values for the inhibition constant (Ki) at MMP-14 (value not in parenthesis) and at MMP-13 (value not in parenthesis) were 1.26 µM and 0.00203 µM, respectively.

As to `CCCCOc1ccc(N2CCN(S(=O)(=O)C3(C(=O)NO)CCN(c4cccnc4)CC3)CC2)cc1` [Example 154], the Ki at MMP-14 (value not in parenthesis) was 3.6 µM; at MMP-13 (value not in parenthesis), 0.000561 µM.

On to `CCCCOc1ccc(N2CCN(S(=O)(=O)C3(C(=O)NO)CCN(C(=O)N4CCOCC4)CC3)CC2)cc1` [Example 124], for which the Ki on MMP-14 (value not in parenthesis) is over 10 µM; at MMP-13 (value not in parenthesis), 0.000121 µM.

As to `CCCCOc1ccc(N2CCN(S(=O)(=O)C3(C(=O)NO)CCN(c4cnccn4)CC3)CC2)cc1` [Example 140], the Ki at MMP-14 (value not in parenthesis) was found to be 0.945 µM; at MMP-13 (value not in parenthesis), 0.000446 µM.

On to `CCCCOc1ccc(N2CCN(S(=O)(=O)C3(C(=O)NO)CCN4CCCC4C3)CC2)cc1F` (stereo not drawn) [Example 126], for which the figures for the Ki on MMP-14 (value not in parenthesis) and at MMP-13 (value not in parenthesis) were over 10 µM and 0.00706 µM, respectively.

As to `CCCCOc1ccc(N2CCN(S(=O)(=O)C3(C(=O)NO)CCN(C(=O)c4cc5ccccc5s4)CC3)CC2)cc1` [Example 143], the Ki was over 10 µM on MMP-14 (value not in parenthesis) and 0.00705 µM at MMP-13 (value not in parenthesis).

Consider `CCCCCCCCCc1cnc(N2CCN(S(=O)(=O)C3(C(=O)NO)CCOCC3)CC2)nc1` [Example 111], for which the inhibition constant (Ki) at MMP-14 (value not in parenthesis) was over 10 µM; at MMP-13 (value not in parenthesis), 0.00258 µM.

As for `C=CCCOC(=O)N1CCC(C(=O)NO)(S(=O)(=O)N2CCN(c3ccc(OCCCC)cc3)CC2)CC1` [Example 101], the Ki on MMP-14 (value not in parenthesis) was found to be 4.33 µM; at MMP-13 (value not in parenthesis), 0.00092 µM.

For the compound `CCCCCc1ccc(N2CCN(S(=O)(=O)C3(C(=O)NO)CCN(CCOC)CC3)CC2)cc1` [Example 6, N-Hydroxy-1-(2-methoxyethyl)-4-{[4-(4-pentylphenyl)piperazin-1-yl]sulfonyl}piperidine-4-carboxamide Dihydrochloride], the results for the inhibitory constant (Ki) on MMP-14 (setting [1]) and at MMP-13 (setting [2]) were 2.3 µM and 0.00027 µM, respectively.

Consider `CCc1ccc(N2CCN(S(=O)(=O)C3(C(=O)NO)CCOCC3)CC2)nc1` [Example 114], for which the Ki on MMP-14 (value not in parenthesis) amounted to 0.097 µM; on MMP-13 (value not in parenthesis) it was 0.000748 µM.

For `O=C(NO)C1(S(=O)(=O)N2CCN(c3ccc(-c4ccccc4)c(F)c3)CC2)CCOCC1` [Example 12, 4-{[4-(2-fluoro-1,1′-biphenyl-4-yl)piperazin-1-yl]sulfonyl}-N-hydroxytetrahydro-2H-pyran-4-carboxamide Hydrochloride], the Ki worked out at 1.71 µM on MMP-14 (setting [1]) and 0.00077 µM at MMP-13 (setting [2]).

As to `CCCCc1ccc(C2CCN(S(=O)(=O)C3(C(=O)NO)CCOCC3)CC2)s1` [Example 19, 4-{[4-(5-butylthien-2-yl)piperidin-1-yl]sulfonyl}-N-hydroxytetrahydro-2H-pyran-4-carboxamide], the inhibitory constant (Ki) on MMP-14 (setting [1]) was determined as 2.19 µM; on MMP-13 (setting [2]), 0.00547 µM.

Turning to `CCCCOc1ccc(N2CCN(S(=O)(=O)C3(C(=O)NO)CCN(C(=S)N(C)C)CC3)CC2)cc1` [Example 123], the results for the inhibition constant (Ki) at MMP-14 (value not in parenthesis) and at MMP-13 (value not in parenthesis) were 5.65 µM and 0.00074 µM, respectively.

`O=C(NO)C1(S(=O)(=O)N2CCN(c3ccc(OCCCC(F)(F)F)cc3)CC2)CCOCC1` [Example 7, N-hydroxy-4-({4-[4-(4,4,4-trifluorobutoxy)phenyl]piperazin-1-yl}sulfonyl)tetrahydro-2H-pyran-4-carboxamide Hydrochloride]: the Ki on MMP-14 (setting [1]) turned out to be 4.33 µM; at MMP-13 (setting [2]), 0.00017 µM.

As for `COCCN1CCC(C(=O)NO)(S(=O)(=O)N2CCN(c3ccc(OCCC(C)C)cc3)CC2)CC1` [Example 148], the inhibition constant Ki on MMP-14 (value not in parenthesis) came out at 6.98 µM; at MMP-13 (value not in parenthesis) it was 0.00024 µM.

On to `CC(C)(C)N1CCC(C(=O)NO)(S(=O)(=O)N2CCN(c3ccc(OCCCC(F)(F)F)cc3F)CC2)CC1` [Example 116], for which the Ki on MMP-14 (value not in parenthesis) is 8.03 µM; at MMP-13 (value not in parenthesis), 0.00121 µM.

Turning to `O=C(NO)C1(S(=O)(=O)N2CCN(c3ncccn3)CC2)CCOCC1` [Example 106], the Ki at MMP-14 (value not in parenthesis) is 7.51 µM; on MMP-13 (value not in parenthesis), 0.0272 µM.

In the case of `CCCCc1ccc(N2CCN(S(=O)(=O)C3(C(=O)NO)CCN(CCOC)CC3)CC2)cc1` [Example 5, 4-{[4-(4-butylphenyl)piperazin-1-yl]sulfonyl}-N-hydroxy-1-(2-methoxyethyl)piperidine-4-carboxamide Dihydrochloride], the Ki on MMP-14 (setting [1]) is 1.55 µM; at MMP-13 (setting [2]) it was 0.000522 µM.

Regarding `CCCCCc1ccc(N2CCN(S(=O)(=O)C3(C(=O)NO)CCOCC3)CC2)c(F)c1` [Example 23, 4-{[4-(2-fluoro-4-pentylphenyl)piperazin-1-yl]sulfonyl}-N-hydroxytetrahydro-2H-pyran-4-carboxamide Hydrochloride], the Ki at MMP-14 (setting [1]) was over 10 µM; at MMP-13 (setting [2]), 0.00417 µM.

`CCCc1ccc(N2CCN(S(=O)(=O)C3(C(=O)NO)CCOCC3)CC2)nc1` [Example 136]: the Ki on MMP-14 (value not in parenthesis) worked out at 0.159 µM; at MMP-13 (value not in parenthesis) it was 0.000423 µM.

For the compound `O=C(NO)C1(S(=O)(=O)N2CCN(c3ccc(SC(F)(F)F)cc3)CC2)CCN(Cc2ccccc2)CC1` [Example 152], the figures for the Ki at MMP-14 (value not in parenthesis) and on MMP-13 (value not in parenthesis) were 2.24 µM and 0.00574 µM, respectively.

In the case of `CCCCOc1ccc(N2CCN(S(=O)(=O)C3(C(=O)NO)CCN(c4ccc(O)cc4)CC3)CC2)cc1` [Example 121], the Ki at MMP-14 (value not in parenthesis) was over 10 µM; at MMP-13 (value not in parenthesis) it was 0.00068 µM.

The values above are taken from patent US20050209278A1, “Piperidinyl- and piperazinyl-sulfonylmethyl hydroxamic acids and their use as protease inhibitors” (priority 2002, published 2005).
